The results in this text go back to patent EP2265631B1, “NOVEL ANTIMICROBIAL PEPTIDES AND THEIR APPLICATION” (Ustav Organicke Chemie a Biochemie Akademie Ved Ceske …, priority 2008, dated 2009).

One data set relates to Bacilus subtilis. Kind of data set: Determination of antimicrobial activity (MIC, bacterial growth in LB broth). Format: cell-based. Particulars: minimum inhibitory concentration (MIC) per method, 37°C, 20 h, read-out: Antimicrobial activity IC50 [µM] B.s. The method, then: (§1) Antimicrobial activity was determined as a quantitative minimum inhibitory concentration (MIC) by observing bacterial growth in the presence of different concentrations of tested peptides. Mid-exponential phase bacteria were added to the solutions of the tested antimicrobial peptide at different concentrations (0.5 to 100 µM) in LB broth in multi-well plates. The plates were incubated at 37°C for 20 h while being continuously shaken in a Bioscreen C instrument (Finland). The absorbance was measured at 540 nm every 15 min and each peptide was tested at least 3 times in duplicate. 1.2.10^3 - 7.5.10^3 CFU of bacteria was routinely used in the experiments. Tetracycline in a concentration range of 0.1 - 50 µM was tested as a standard.

The next data set concerns Escherichia coli. The description is as above. It counts as cell-based. As to conditions: minimum inhibitory concentration (MIC) per method, 37°C, 20 h, read-out: Antimicrobial activity IC50 [µM] E. c. The protocol: as §1
The next data set concerns Pseudomonnas aeruginosa. The description is as above. It counts as cell-based. As to conditions: minimum inhibitory concentration (MIC) per method, 37°C, 20 h, read-out: Antimicrobial activity IC50 [µM] P.a. The protocol: as §1
For another data set, the system named is Staphylococcus aureus. The description is as above. Particulars: minimum inhibitory concentration (MIC) per method, 37°C, 20 h, read-out: Antimicrobial activity IC50 [µM] S.a. Format: cell-based. The method, then:
as §1

For another data set, the system named is rat red blood cells. Kind of data set: Determination of hemolytic activity. Format: cell-based. As to conditions: for Hemolytic activity: rat red blood cells (5%), 1 h at 37°C, peptides 1-200 µM. The method, then: The peptides in the concentration (1-200 µM) were incubated with rat red blood cells (5%) for 1 h at 37°C in a physiological solution at a final volume of 0.2 ml. The samples were then centrifuged for 5 min at 250 g, and the absorbance of the supernatant was determined at 540 nm. Supernatants of red blood cells suspended in physiological solution and in 0.2% TRITON X100 in physiological solution served as controls for zero hemolysis (blank) and 100% hemolysis, respectively. Table 3. Antimicrobial and hemolytic activity of melectin (I) and its synthetic analogs of formulas II/1 to II/18

For data set [1], the system named is human cervix carcinoma HeLa S3. Kind of data set: Cytostatic effect on cancer cells (e.g. MTT test). Format: cell-based. As to conditions: 24-72 h incubation, 50% decrease in cell viability; read-out: IC50 [µM] HeLaS3. The method, then:
(§2) Tumor cells in suspension or adherent cells were incubated under standard conditions in appropriate culture media for 24-72 h with the peptides in 2-40 micromolar concentration. After this time, the number of living cells was determined using routine tests, e.g. MTT test. The IC50 was determined as concentration of peptides, which caused 50% decrease in cell viability in comparison to controls (no peptide present). In preliminary tests mouse lymphocytic leukemia L1210 (CCL 219), CCRF-CEM T lymphoblastoid (human acute lymphoblastic leukemia, CCL 119), human promyelocytic leukemia HL-60 (CCL 240), human cervix carcinoma HeLa S3, rat pheochromocytoma PC12, human colon adenocarcinoma SW480 (CCL-228), and normal rat epithelial cells (IEC-6, CRL-1592) from ATCC (Manassas, VA, USA), were used. […] Table 4. Cytostatic effect of selected peptides on cancer cells

Data set [2] relates to human colon adenocarcinoma SW480. Briefly: Cytostatic effect on cancer cells (e.g. MTT test). Format: cell-based. Particulars: 24-72 h incubation, 50% decrease in cell viability. The protocol: as §2
In general terms: Tetrazolium dyes change colour on reduction, which living cells bring about.

Data set [3] has as its system human promyelocytic leukemia HL-60. Briefly: Cytostatic effect on cancer cells (e.g. MTT test). Format: cell-based. Particulars: 24-72 h incubation, 50% decrease in cell viability. The protocol: as §2
Data set [4] relates to mouse lymphocytic leukemia L1210. Briefly: Cytostatic effect on cancer cells (e.g. MTT test). Format: cell-based. Particulars: 24-72 h incubation, 50% decrease in cell viability. The method, then:
as §2

Data set [5] relates to rat pheochromocytoma PC12. Kind of data set: Cytostatic effect on cancer cells (e.g. MTT test). It counts as cell-based. Particulars: 24-72 h incubation, 50% decrease in cell viability. The method, then:
as §2

Data set [6] has as its system CCRF-CEM T lymphoblastoid. Briefly: Cytostatic effect on cancer cells (e.g. MTT test). Format: cell-based, human. Particulars: 24-72 h incubation, 50% decrease in cell viability. The method, then: as §2
In a further data set the test system is Tumor cells. Kind of data set: Cytostatic effect on cancer cells, summary over the cell panel. It counts as cell-based. Particulars: range over the tumor cell lines, preliminary tests. The method, then:
as §2

In another data set the test system is bacteria. Briefly: Antimicrobial effect, general statement. Format: cell-based. The method, then:
as §1

Where only a bound is given, the exact number is not on record here.

In the case of `CC[C@H](C)[C@H](NC(=O)[C@H](CO)NC(=O)[C@H](CC(C)C)NC(=O)[C@H](Cc1ccccc1)NC(=O)CN)C(=O)N[C@@H](CC(C)C)C(=O)N[C@@H](CCCCN)C(=O)N[C@@H](CCCCN)C(=O)N[C@H](C(=O)N[C@@H](CC(C)C)C(=O)N1CCC[C@H]1C(=O)N[C@@H](CCCCN)C(=O)N[C@H](C(=O)N[C@@H](CCSC)C(=O)N[C@@H](C)C(=O)N[C@@H](Cc1cnc[nH]1)C(=O)N[C@@H](CCSC)C(=O)N[C@@H](CCCCN)C(N)=O)C(C)C)C(C)C` [Peptide I, H-Gly-Phe-Leu-Ser-Ile-Leu-Lys-Lys-Val-Leu-Pro-Lys-Val-Met-Ala-His-Met-Lys-NH2], the IC50 in the data set on Bacilus subtilis worked out at 0.8 µM; with Escherichia coli, 2 µM; in the data set with Pseudomonnas aeruginosa, 18.5 µM; in the data set with Staphylococcus aureus, 6.8 µM; in [1] it was 18.1 µM; in data set [2] it was 25 µM. The IC50 in data set [3] was more than 10 µM; in data set [4], more than 10 µM; in data set [5], 10 µM; in data set [6], more than 10 µM; with Tumor cells, 4 to 30 µM. For the same compound, the “hemolytic activity (in words)” value in the data set on rat red blood cells is “low hemolytic activity”. This compound came in with a Hemolytic activity in the data set on rat red blood cells of more than 100 µM. Also, the “antimicrobial effect (in words)” value with bacteria is listed as “strong antimicrobial effect”.

In the case of “H-GFLSILKKVLPKVMKAMK-NH2 [II/7, H-Gly-Phe-Leu-Ser-Ile-Leu-Lys-Lys-Val-Leu-Pro-Lys-Val-Met-Lys-Ala-Met-Lys-NH2]”, the IC50 was 0.8 µM in the data set on Bacilus subtilis; 1.5 µM with Escherichia coli; 31.7 µM with Pseudomonnas aeruginosa; 7.7 µM in the data set with Staphylococcus aureus; 9.6 µM in data set [1]; 12.5 µM in data set [2]. The IC50 is 9.1 µM in data set [3], 6.9 µM in data set [4] and 8.8 µM in data set [6]. In the data set with rat red blood cells, the Hemolytic activity came to 70 µM.

One may read the IC50 as the concentration at which inhibition is half-maximal.
